Assay results reported in patent publication US11040082B2, “Compositions and methods for treating colorectal cancer” (Georgia State University Research Foundation, Inc., priority 2014, dated 2021).

Key:
[1] = tested on: AOM/DSS-induced colon tumorigenesis; assay: AOM/DSS-induced colitis-associated cancer (CAC) model, WT mice, with or without KPV; format: in vivo, mouse
Method: (§1) Colonic tumor model: Colon cancer was induced as previously described with some modifications (Greten et al., Cell 118:285-96, 2004). Mice were intraperitoneally injected with AOM (Sigma-Aldrich, St. Louis, Mo.) diluted in PBS (10 mg/kg) and maintained on a regular diet and water for 5 days. The mice were then subjected to two cycles of DSS treatment (MP Biomedicals, Solon, Ohio, USA), with each cycle consisting of 2.5% DSS for 7 days followed by a 14-day recovery period with regular water. Mice were then sacrificed and their colons isolated for further experimentation. Colonic tumors were counted and measured using a dissecting microscope. The total sum of the area of each colon covered by tumor tissue was expressed as the tumor burden index.
(§2) In experiments designed to test the efficacy of KPV (Biopeptide Co. Inc., San Diego, Calif.), the above protocol was slightly modified. Five days after AOM injections (10 mg/kg to WT mice or 15 mg/kg to PepT1-KO mice), the WT and PepT1-KO mice were given 3% DSS with or without KPV for seven days. Following the 7-day treatment, the mice were given normal drinking water for 14 days, then 2.5% DSS (WT) or 3% DSS (PepT1-KO mice) with or without KPV for seven days. Following the 7-day treatment, the mice were given normal drinking water for 14 days. The KPV-treated group received 100 μM KPV in their drinking water along with the DSS during both DSS cycles.
H&E Staining of Colonic Tissue: Mouse colons were fixed in 10%-buffered formalin for 24 hours at room temperature and then embedded in paraffin. Tissues were sectioned at 5-μm thickness and stained with hematoxylin & eosin (H&E) using standard protocols. Images were acquired using an Olympus microscope equipped with a DP-23 digital camera.
Immunohistochemistry: Mouse colonic tissues were fixed in formalin and paraffin-embedded. For Ki67, β-catenin and PepT1 staining, sections were deparaffinized. Slides were incubated in sodium citrate buffer (pH 6.0) and cooked in a pressure cooker for 10 minutes for antigen retrieval. Sections were then blocked with 5% goat serum in TBS followed by incubation for one hour with anti-Ki67 (1:100, Vector Laboratories, Burlingame, Calif.), anti-β-catenin (1:1000, Cell Signaling, Danvers, Mass.) or anti-mPepT1 at 37° C. After washing with TBS, sections were treated with appropriate biotinylated secondary antibodies for 30 minutes at 37° C., and color development was performed using the Vectastain ABC kit (Vector Laboratories). Sections were then counterstained with hematoxylin, dehydrated, and then coverslipped. Images were acquired using an Olympus microscope equipped with DP-23 Digital camera. Ki67-positive cells were counted per crypt.
Therefore, we hypothesized that KPV may help prevent colon tumorigenesis in the AOM/DSS-induced CAC model. To test this hypothesis, WT mice were treated with AOM/DSS or AOM/DSS+KPV (during the DSS cycles). […] In order to investigate any putative protective effect of KPV administration in pepT1-KO mice, the colitis-associated cancer protocol was slightly modified based on the relatively low penetrance of the disease in pepT1-deficient animals (FIG. 3). AOM concentration was increased to 15 mg/kg and DSS was increased to 3% in order to favor tumor development. […] Upregulation of colonic PepT1 may lead to increased interactions between bacterial peptides and intracellular innate immune receptors, including NOD receptors, thus triggering downstream activation of proinflammatory signaling pathways (Dalmasso et. al., Gastroenterology 141:1334-45, 2011; Laroui et al., J. Biol. Chem. 286:31003-13, 2011). Furthermore, previous studies have shown that bacteria are required for the initiation of colonic inflammation and subsequent dysplasia and tumorigenesis (Itzkowitz and Yio, Am. J. Physiol. Gastrointest. Liver Physiol. 287:G7-17, 2004). […]

[2] = tested on: AOM/DSS-induced colon tumorigenesis in PepT1-KO mice; assay: AOM/DSS-induced colitis-associated cancer model, PepT1-KO mice, with or without KPV; format: in vivo, mouse; conditions: AOM 15 mg/kg, 3% DSS, + KPV vs AOM/DSS only
Method: as §1, §2
Therefore, we hypothesized that KPV may help prevent colon tumorigenesis in the AOM/DSS-induced CAC model. To test this hypothesis, WT mice were treated with AOM/DSS or AOM/DSS+KPV (during the DSS cycles). […] In order to investigate any putative protective effect of KPV administration in pepT1-KO mice, the colitis-associated cancer protocol was slightly modified based on the relatively low penetrance of the disease in pepT1-deficient animals (FIG. 3). AOM concentration was increased to 15 mg/kg and DSS was increased to 3% in order to favor tumor development. […] Upregulation of colonic PepT1 may lead to increased interactions between bacterial peptides and intracellular innate immune receptors, including NOD receptors, thus triggering downstream activation of proinflammatory signaling pathways (Dalmasso et. al., Gastroenterology 141:1334-45, 2011; Laroui et al., J. Biol. Chem. 286:31003-13, 2011). Furthermore, previous studies have shown that bacteria are required for the initiation of colonic inflammation and subsequent dysplasia and tumorigenesis (Itzkowitz and Yio, Am. J. Physiol. Gastrointest. Liver Physiol. 287:G7-17, 2004). Future studies are warranted to assess the role of PepT1-bacterial interactions in these processes, and whether such interactions contribute to the progression of CAC.

PepT1 = target: T1, PepT1 (Homo sapiens, UniProt P46059); conditions: in vitro, Caco-2/BBE cells; cited from earlier work
T1 construct: endogenous in cells; host or cells: Caco-2/BBE cells
T1 sequence (P46059 1-708): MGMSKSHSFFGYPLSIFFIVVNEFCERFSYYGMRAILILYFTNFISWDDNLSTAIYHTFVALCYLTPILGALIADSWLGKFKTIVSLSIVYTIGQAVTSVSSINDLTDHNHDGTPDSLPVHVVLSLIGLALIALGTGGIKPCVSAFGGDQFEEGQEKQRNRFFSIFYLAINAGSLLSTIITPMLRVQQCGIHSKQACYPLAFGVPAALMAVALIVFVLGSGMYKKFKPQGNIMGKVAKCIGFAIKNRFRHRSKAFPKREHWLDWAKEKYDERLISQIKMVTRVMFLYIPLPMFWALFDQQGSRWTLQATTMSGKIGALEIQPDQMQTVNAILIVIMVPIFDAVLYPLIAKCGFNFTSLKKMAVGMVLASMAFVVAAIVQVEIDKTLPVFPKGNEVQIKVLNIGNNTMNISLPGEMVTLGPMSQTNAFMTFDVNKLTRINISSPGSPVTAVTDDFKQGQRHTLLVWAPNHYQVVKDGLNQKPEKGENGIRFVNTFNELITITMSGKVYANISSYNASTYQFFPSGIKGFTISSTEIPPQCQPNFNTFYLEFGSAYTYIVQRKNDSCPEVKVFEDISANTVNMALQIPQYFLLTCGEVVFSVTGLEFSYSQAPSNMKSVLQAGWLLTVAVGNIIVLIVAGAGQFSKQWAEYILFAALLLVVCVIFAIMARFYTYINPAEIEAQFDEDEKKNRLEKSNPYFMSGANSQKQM

[3] = tested on: Caco2-BBE and Jurkat cells; conditions: stimulation with pro-inflammatory cytokines, co-treated with KPV; cited from earlier work
DSS-induced colitis = conditions: previous studies; cited from earlier work
tumor growth = conditions: several studies; cited from earlier work
colon adenocarcinoma = conditions: cited from earlier work
[4] = tested on: myeloid leukemia C1498 cells; conditions: in vivo; cited from earlier work
[5] = tested on: PepT1 expression and colitis in IL-10-/- mice; conditions: compared to vehicle-treated; cited from earlier work
[6] = tested on: tumorigenesis in IL-10-deficient mice; conditions: even after colitis had developed; cited from earlier work
[7] = AOM/DSS + 100 μM KPV in drinking water during both DSS cycles vs AOM/DSS only
[8] = AOM/DSS + 100 μM KPV vs AOM/DSS only

Lys-Pro-Val [KPV]
colon tumorigenesis: overall colonic tumor burden [1, 7]: drastic decreases | colon tumorigenesis: tumor numbers [1, 7]: drastic decreases | colon tumorigenesis: tumor sizes [1, 7]: drastic decreases | aberrant crypt foci (H&E-stained colonic sections) [1, 8]: fewer aberrant crypt foci | body weight loss during DSS treatment [1, 8]: lost similar amounts of weight | cellular infiltration (H&E-stained colonic sections) [1, 8]: decreased cellular infiltration | epithelial cell proliferation (Ki67+ cells/crypt) [1, 8]: less epithelial cell proliferation | inflammation (H&E-stained colonic sections) [1, 8]: decreased inflammation | protection from tumorigenesis [2]: not protected from tumorigenesis | tumor burden [2]: remained unchanged | tumor numbers [2]: remained unchanged | tumor sizes [2]: remained unchanged | transport via PepT1 (PepT1): transported via PepT1 | NF-κB activation [3]: attenuated NF-κB activation | pro-inflammatory cytokine production [3]: decreased pro-inflammatory cytokine production | inflammation and DSS-induced colitis (DSS-induced colitis): decreases inflammation and attenuates DSS-induced colitis

CC(C)C[C@H](NC(=O)[C@@H](O)[C@H](N)Cc1ccccc1)C(=O)O [bestatin]
cell proliferation (tumor growth): decreases cell proliferation | tumor growth (tumor growth): ameliorates tumor growth | growth of colon adenocarcinoma (colon adenocarcinoma): inhibits the growth of colon adenocarcinoma | growth of myeloid leukemia C1498 cells [4]: decreases the growth

Lactobacillus plantarum
PepT1 expression and activity [5]: reduced PepT1 expression and activity | colitis [5]: attenuated colitis

B1: IL-10: exogenous anti-inflammatory cytokine IL-10 administered to IL-10-deficient mice (protein, UniProt P18893 19-178, looked up)
Interleukin-10: SRGQYSREDNNCTHFPVGQSHMLLELRTAFSQVKTFFQTKDQLDNILLTDSLMQDFKGYLGCQALSEMIQFYLVEVMPQAEKHGPEIKEHLNSLGEKLKTLRMRLRRCHRFLPCENKSKAVEQVKSDFNKLQDQGVYKAMNEFDIFINCIEAYMMIKMKS
tumorigenesis [6]: tumorigenesis was decreased
